# Target: HEK293 cells with stable expression of the GRIN1 gene and tetracycline-inducible expression of the GRIN2B gene (NMDA receptor, NR2B) (Homo sapiens, UniProt Q13224)
# Assay: Fluo-8 Ca2+ flux assay: reversal of Ro 25-6981-mediated suppression of the Ca2+ response to co-agonist (glutamate/glycine); further: test concentration or dose not given here
# Type: cell-based
# Details: reversal of the Ro 25-6981 suppression of the Ca2+ response to co-agonist (glutamate/glycine)
# HEK293 cells with stable expression of the GRIN1 gene and tetracycline-inducible expression of the GRIN2B gene (NMDA receptor, NR2B), sequence (Q13224 27-1484, other chains not shown): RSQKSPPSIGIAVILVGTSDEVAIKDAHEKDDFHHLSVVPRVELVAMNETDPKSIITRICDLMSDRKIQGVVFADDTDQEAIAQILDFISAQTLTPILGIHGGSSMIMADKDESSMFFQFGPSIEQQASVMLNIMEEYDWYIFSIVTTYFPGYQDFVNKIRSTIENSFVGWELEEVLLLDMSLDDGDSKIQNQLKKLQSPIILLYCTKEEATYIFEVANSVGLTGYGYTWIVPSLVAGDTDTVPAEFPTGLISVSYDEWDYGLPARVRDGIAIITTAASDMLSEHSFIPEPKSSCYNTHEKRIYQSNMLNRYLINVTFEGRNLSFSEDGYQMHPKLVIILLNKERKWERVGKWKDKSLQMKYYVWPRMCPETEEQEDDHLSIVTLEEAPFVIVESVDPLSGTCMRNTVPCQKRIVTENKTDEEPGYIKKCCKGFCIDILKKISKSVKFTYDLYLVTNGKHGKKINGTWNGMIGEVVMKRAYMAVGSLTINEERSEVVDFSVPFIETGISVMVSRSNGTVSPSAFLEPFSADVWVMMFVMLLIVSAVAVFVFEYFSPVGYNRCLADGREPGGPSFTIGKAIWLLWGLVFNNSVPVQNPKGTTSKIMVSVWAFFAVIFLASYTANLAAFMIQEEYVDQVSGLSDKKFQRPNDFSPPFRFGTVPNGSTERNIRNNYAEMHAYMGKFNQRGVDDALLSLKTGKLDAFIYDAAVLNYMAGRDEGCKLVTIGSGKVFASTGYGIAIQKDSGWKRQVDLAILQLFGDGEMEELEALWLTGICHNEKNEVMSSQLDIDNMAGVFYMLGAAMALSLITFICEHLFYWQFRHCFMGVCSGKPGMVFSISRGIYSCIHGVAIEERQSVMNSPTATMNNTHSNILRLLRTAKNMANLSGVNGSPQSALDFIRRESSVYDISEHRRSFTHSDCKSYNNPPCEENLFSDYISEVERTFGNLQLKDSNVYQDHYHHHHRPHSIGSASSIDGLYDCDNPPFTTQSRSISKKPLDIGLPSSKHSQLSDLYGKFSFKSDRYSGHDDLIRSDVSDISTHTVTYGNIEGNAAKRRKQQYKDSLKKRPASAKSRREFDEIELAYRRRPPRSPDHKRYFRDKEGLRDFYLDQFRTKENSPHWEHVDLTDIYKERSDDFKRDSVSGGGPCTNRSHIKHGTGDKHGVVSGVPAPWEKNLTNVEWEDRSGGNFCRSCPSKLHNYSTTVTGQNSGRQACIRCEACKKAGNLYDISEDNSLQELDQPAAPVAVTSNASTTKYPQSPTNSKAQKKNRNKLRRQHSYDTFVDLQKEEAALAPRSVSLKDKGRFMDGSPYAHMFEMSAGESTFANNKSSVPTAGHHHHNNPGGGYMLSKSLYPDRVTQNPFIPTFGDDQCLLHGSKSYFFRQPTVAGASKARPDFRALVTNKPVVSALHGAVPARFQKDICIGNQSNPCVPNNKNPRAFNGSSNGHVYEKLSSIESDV
row,Compound,Response Recovered (%)
1,"O=C(Cn1cnc2[nH]cc(-c3ccc(Cl)cc3)c2c1=O)N1CCCC1C(F)(F)F (centres unmarked) [Example 152, 5-(4-chlorophenyl)-3-(2-oxo-2-(2-(trifluoromethyl)pyrrolidin-1-yl)ethyl)-3H-pyrrolo[2,3-d]pyrimidin-4(7H)-one]",10%
2,"Cc1cc(-c2nc(C3CC3)n3ccn(CC(=O)N4CC(C)(F)C4)c(=O)c23)ccc1F [Example 442, 3-cyclopropyl-7-(2-(3-fluoro-3-methylazetidin-1-yl)-2-oxoethyl)-1-(4-fluoro-3-methylphenyl)imidazo[1,5-a]pyrazin-8(7H)-one]",65%
3,"CC(C)(C)OC(=O)N1CCC12CN(C(=O)Cn1ccc3scc(-c4ccc(F)c(Cl)c4)c3c1=O)C2 [Example 79, tert-butyl 6-(2-(3-(3-chloro-4-fluorophenyl)-4-oxothieno[3,2-c]pyridin-5(4H)-yl)acetyl)-1,6-diazaspiro[3.3]heptane-1-carboxylate]",18%
4,"CCC1(F)CN(C(=O)Cn2ccc3scc(-c4ccc(Cl)c(Cl)c4)c3c2=O)C1 [Example 50, 3-(3,4-dichlorophenyl)-5-(2-(3-ethyl-3-fluoroazetidin-1-yl)-2-oxoethyl)thieno[3,2-c]pyridin-4(5H)-one]",96%
5,"O=C(Cn1ccc2scc(-c3ccc(F)c(C(F)(F)F)c3)c2c1=O)N1CC2(CC2)C1 [Example 80, 3-(4-fluoro-3-(trifluoromethyl)phen-yl)-5-(2-oxo-2-(5-azaspiro[2.3]hexan-5-yl)ethyl)thieno[3,2-c]pyridin-4(5H)-one]",64%
6,"O=C(Cn1cnc2csc(-c3ccc(Cl)c(C(F)(F)F)c3)c2c1=O)N1CC(F)(F)C1 [Example 362, 5-(4-chloro-3-(trifluoromethyl)phenyl)-3-(2-(3,3-difluoroazetidin-1-yl)-2-oxoethyl)thieno[3,4-d]pyrimidin-4(3H)-one]",39%
7,"O=C(Cn1ccc2scc(-c3ccc(Cl)c(C(F)(F)F)c3)c2c1=O)N1CCC(F)C1 (centres unmarked) [Example 4, 3-(4-chloro-3-(trifluoromethyl)phenyl)-5-(2-(3-fluoropyrrolidin-1-yl)-2-oxoethyl)thieno[3,2-c]pyridin-4(5H)-one]",107%
8,"Cn1cnc(-n2cc(-c3ccc(Cl)c(Cl)c3)c3c(=O)n(CC(=O)N4CC(C)(F)C4)ccc32)n1 [Example 270, 3-(3,4-dichlorophenyl)-5-(2-(3-fluoro-3-methylazetidin-1-yl)-2-oxoethyl)-1-(1-methyl-1H-1,2,4-triazol-3-yl)-1H-pyrrolo[3,2-c]pyridin-4(5H)-one]",130%
9,"Cc1cn(CC(=O)N2CC(F)(F)C2)c(=O)c2c(-c3ccc(F)c(Cl)c3)ccn12 [Example 417, 8-(3-chloro-4-fluorophenyl)-2-(2-(3,3-difluoroazetidin-1-yl)-2-oxoethyl)-4-methylpyrrolo[1,2-a]pyrazin-1(2H)-one]",20%
10,"CC1(F)CN(C(=O)Cn2ccn3ccc(-c4ccc(F)c(Cl)c4)c3c2=O)C1 [Example 397, 8-(3-chloro-4-fluorophenyl)-2-(2-(3-fluoro-3-methylazetidin-1-yl)-2-oxoethyl)pyrrolo[1,2-a]pyrazin-1(2H)-one]",140%
11,"O=C(Cn1ccn2ncc(-c3ccc(F)c(C(F)(F)F)c3)c2c1=O)N1CC(F)C1 [Example 322, 3-(4-fluoro-3-(trifluoromethyl)phenyl)-5-(2-(3-fluoroazetidin-1-yl)-2-oxoethyl)pyrazolo[1,5-a]pyrazin-4(5H)-one]",33%
12,"CCC1(F)CN(C(=O)Cn2ccn3ccc(-c4cnc(Cl)c(Cl)c4)c3c2=O)C1 [Example 405, 8-(5,6-dichloropyridin-3-yl)-2-(2-(3-ethyl-3-fluoroazetidin-1-yl)-2-oxoethyl)pyrrolo[1,2-a]pyrazin-1(2H)-one]",61%
13,"Cc1cc(-c2csc3ccn(CC(=O)N4CC(F)(CF)C4)c(=O)c23)cnc1Cl [Example 86, 3-(6-chloro-5-methylpyridin-3-yl)-5-(2-(3-fluoro-3-(fluoromethyl)azetidin-1-yl)-2-oxoethyl)thieno[3,2-c]pyridin-4(5H)-one]",17%
14,"CCC1(F)CN(C(=O)Cn2ccn3ccc(-c4ccc(F)c(Cl)c4)c3c2=O)C1 [Example 400, 8-(3-chloro-4-fluorophenyl)-2-(2-(3-ethyl-3-fluoroazetidin-1-yl)-2-oxoethyl)pyrrolo[1,2-a]pyrazin-1(2H)-one]",97%
15,"CC1(F)CN(C(=O)Cn2ccc3[nH]cc(-c4ccc(F)c(C(F)(F)F)c4)c3c2=O)C1 [Example 222, 3-(4-fluoro-3-(trifluoromethyl)phenyl)-5-(2-(3-fluoro-3-methylazetidin-1-yl)-2-oxoethyl)-1H-pyrrolo[3,2-c]pyridin-4(5H)-one]",86%

# The remaining lines, values ahead:
row,Response Recovered (%),Compound
1,100%,"CC1(F)CN(C(=O)Cn2ccn3c(C4CC4)nc(-c4ccc(F)c(Cl)c4)c3c2=O)C1 [Example 436, 1-(3-chloro-4-fluorophenyl)-3-cyclopropyl-7-(2-(3-fluoro-3-methylazetidin-1-yl)-2-oxoethyl)imidazo[1,5-a]pyrazin-8(7H)-one]"
2,37%,"N#Cc1cn(CC(=O)N2CCCC2)c(=O)c2c(-c3ccc(Cl)c(C(F)(F)F)c3)csc12 [Example 99, 3-(4-chloro-3-(trifluoromethyl)phenyl)-4-oxo-5-(2-oxo-2-(pyrrolidin-1-yl)ethyl)-4,5-dihydrothieno[3,2-c]pyridine-7-carbonitrile]"
3,8%,"O=C(Cn1cnc2occ(-c3ccc(Cl)cc3)c2c1=O)N1CCCC1 [Example 388, 5-(4-chlorophenyl)-3-(2-oxo-2-(pyrrolidin-1-yl)ethyl)furo[2,3-d]pyrimidin-4(3H)-one]"
4,42%,"O=C(Cn1cnc2c(c(-c3ccc(F)c(Cl)c3)cn2C2CC2)c1=O)N1CCCC1 [Example 192, 5-(3-chloro-4-fluorophenyl)-7-cyclopropyl-3-(2-oxo-2-(pyrrolidin-1-yl)ethyl)-3H-pyrrolo[2,3-d]pyrimidin-4(7H)-one]"
5,14%,"O=C(Cn1cc(-c2ncon2)c2scc(-c3ccc(F)c(C(F)(F)F)c3)c2c1=O)N1CCCC1 [Example 109, 3-(4-fluoro-3-(trifluoromethyl)phenyl)-7-(1,2,4-oxadiazol-3-yl)-5-(2-oxo-2-(pyrrolidin-1-yl)ethyl)thieno[3,2-c]pyridin-4(5H)-one]"
6,112%,"Cc1cn(CC(=O)N2CCC(F)C2)c(=O)c2c(-c3ccc(F)c(Cl)c3)ccn12 (centres unmarked) [Example 414, 8-(3-chloro-4-fluorophenyl)-2-(2-(3-fluoropyrrolidin-1-yl)-2-oxoethyl)-4-methylpyrrolo[1,2-a]pyrazin-1(2H)-one]"
7,67%,"CC1CN(C(=O)Cn2ccc3scc(-c4ccc(F)c(Cl)c4)c3c2=O)C1 [Example 48, 3-(3-chloro-4-fluorophenyl)-5-(2-(3-methylazetidin-1-yl)-2-oxoethyl)thieno[3,2-c]pyridin-4(5H)-one]"
8,110%,"Cc1cn(CC(=O)N2CC(C)(F)C2)c(=O)c2c(-c3ccc(F)c(Cl)c3)ccn12 [Example 416, 8-(3-chloro-4-fluorophenyl)-2-(2-(3-fluoro-3-methylazetidin-1-yl)-2-oxoethyl)-4-methylpyrrolo[1,2-a]pyrazin-1(2H)-one]"

# Source: US12162890B2 (Novartis AG, priority 2015, dated 2024)
